In test [1] the target is T1, Mt ODCase (Methanothermobacter thermautotrophicus, UniProt O26232). The experiment in a line: Reversible, competitive inhibition of Mt ODCase. It counts as biochemical, Methanobacterium thermoautotrophicum.
Test [2] has as its target T2, human ODCase (Homo sapiens, UniProt P11172). In words: Reversible, competitive inhibition of human ODCase. Format: biochemical.
Test [3] has as its target T1, Mt ODCase. In words: Time-dependent inactivation of Mt ODCase. Format: biochemical, Methanobacterium thermoautotrophicum.
Test [4] addresses ODCase (Methanothermobacter thermautotrophicus, UniProt O26232). The experiment in a line: Mass spectral analysis of enzyme-inhibitor complexes. As to conditions: enzyme incubated with inhibitor; identical results with human ODCase. Set-up: species or system Methanobacterium thermoautotrophicum.
The target in test [5] is T1, Mt ODCase. The settings on record: cited from earlier work.
The target in test [6] is T2, human ODCase. As to conditions: read-out: ODCase Ki, human; competitive inhibition; ref [15],[16],[17]; cited from earlier work.
Test [7] addresses T1, Mt ODCase. As to conditions: cited from earlier work. The source holds these as a separate data set.
Test [8] relates to OCI-AML-1 cell lines (acute myeloid leukemia). The experiment in a line: Anticancer activity in cell-based assay. As to conditions: AML1, read-out: IC50, AML-1.
Test [9] has as its system Plasmodium falciparum (3D7). In words: Antimalarial activity in cell-based assay. As to conditions: 3D7, read-out: IC50, Pf (3D7).
Test [10] has as its system OCI-AML-1 cell lines (acute myeloid leukemia). The settings on record: read-out: IC50, AML-1; ref [17]; cited from earlier work.
For test [11], the system named is Plasmodium falciparum (3D7). The settings on record: read-out: IC50, Pf (3D7); ref [21]; cited from earlier work.
For test [12], the system named is CHO. As to conditions: read-out: IC50, CHO; ref [21]; cited from earlier work.
[13] abbreviates: ODCase Ki, Mt, competitive inhibition, ITC, 55°C.

“And” between values parts separate entries of the source, which are not always exact repeats. Equal entries are not always repeated. Where two headings read alike, the source gives them in different places.

The source of these data is paper PMC3083246 (Journal of medicinal chemistry, 2011).

The kinact is the rate constant of inactivation at saturating inhibitor. A word on the IC50: it is the midpoint of a concentration-inhibition curve.

For `N#Cc1cc(=O)[nH]c(=O)n1[C@@H]1O[C@H](COP(=O)(O)O)[C@@H](O)[C@H]1F` [Compound 35, 6-Cyano-2′-deoxy-2′-fluoro-β-D-uridine-5′-O-monophosphate], the Ki in [1] (setting [13]) was 0.037 ± 0.0025 mM; in test [2], more than 2000 µM. Also, the “inhibition of the catalytic activity of human ODCase” value in test [2] (up to a concentration of 2 mM) is recorded as “did not inhibit”. The KI (inactivation) in [3] (read-out: KI, equilibrium inhibition constant of inactivation, Mt ODCase, time-dependent inactivation) was determined as 30000 ± 6000 µM. Besides, the kinact in test [3] (read-out: kinact, Mt ODCase) is 0.000556 s⁻¹. Besides, in [4], the “enzyme-inhibitor complex by mass spectrometry” value is listed as “covalent complex”.

On to `N#Cc1cc(=O)[nH]c(=O)n1[C@@H]1O[C@H](COP(=O)(O)O)[C@@H](O)[C@H]1O` [Compound 11, 6-CN-UMP], for which the Ki in [5] (read-out: ODCase Ki, Mt, competitive inhibition, ref [15],[16],[17]) is 0.0286 ± 0.0021 mM; in [6], 204 ± 11 µM.

Turning to `[N-]=[N+]=Nc1c(F)c(=O)[nH]c(=O)n1[C@@H]1O[C@H](COP(=O)(O)O)[C@@H](O)[C@H]1O` [Compound 12, 6-azido-5-fluoro-UMP], in test [7] (first-order rate of inactivation, ref [17]), the “kinact, Mt ODCase” value is 41 ± 3 h⁻¹. For the same compound, the Ki in test [7] (read-out: KI, Mt ODCase, time-dependent inactivation, ref [17]) is 18.2 ± 0.0036 µM.

For `NC(=O)c1cc(=O)[nH]c(=O)n1[C@@H]1O[C@H](COP(=O)(O)O)[C@@H](O)[C@H]1F` [Compound 36, 6-Amido-2′-deoxy-2′-fluoro-β-D-uridine-5′-O-monophosphate], the Ki in test [1] (Ki, Mt ODCase, text values in mM) is > 3 mM and 3.32 mM; in test [1] (setting [13]) it was 3.32 ± 0.176 mM; in test [2] it was more than 3000 µM.

For `[N-]=[N+]=Nc1cc(=O)[nH]c(=O)n1[C@@H]1O[C@H](CO)[C@@H](O)[C@H]1F` [Compound 28, 6-Azido-2′-deoxy-2′-fluoro-β-D-uridine], the IC50 in [8] was more than 50 µM.

Consider `O=c1cc(I)n([C@@H]2O[C@H](CO)[C@@H](O)[C@H]2F)c(=O)[nH]1` [Compound 27, 2′-Deoxy-2′-fluoro-6-iodo-β-D-uridine], for which the IC50 in test [8] is more than 50 µM.

As to `N#Cc1cn([C@@H]2O[C@H](CO)[C@@H](O)[C@H]2F)c(=O)[nH]c1=O` [Compound 31, 5-Cyano-2′-deoxy-2′-fluoro-β-D-uridine], the IC50 in test [8] was more than 50 µM.

For `N#Cc1cc(=O)[nH]c(=O)n1[C@@H]1O[C@H](CO)[C@@H](O)[C@H]1F` [Compound 29, 6-Cyano-2′-deoxy-2′-fluoro-β-D-uridine], in test [8], the IC50 was more than 50 µM.

Consider `CCN(CC)CCCC(C)Nc1ccnc2cc(Cl)ccc12` (centres unmarked) [Chloroquine], for which the IC50 in test [9] was found to be 0.022 ± 0.002 µM.

For `O=c1cnn([C@@H]2O[C@H](CO)[C@@H](O)[C@H]2O)c(=O)[nH]1` [Compound 5, 6-azauridine], the IC50 in test [10] was 6.1 µM.

On to `N#Cc1cn([C@@H]2O[C@H](COP(=O)(O)O)[C@@H](O)[C@H]2F)c(=O)[nH]c1=O` [Compound 37, 5-Cyano-2′-deoxy-2′-fluoro-β-D-uridine-5′-O-monophosphate], for which the Ki in test [1] (setting [13]) worked out at 0.36 ± 0.023 mM; in [2] it was 759 ± 88 µM.

For `O=c1cc(I)n([C@@H]2O[C@H](COP(=O)(O)O)[C@@H](O)[C@H]2O)c(=O)[nH]1` [Compound 10, 6-iodo-UMP], in test [3] (higher than 33), the “second-order rate constant relative to 2′-deoxy-2′-fluoro analog 33” value is ~ 5 orders of magnitude. Also, the “kobs/[I], M. thermoautotrophicum ODCase” value in test [7] (irreversible inactivation, ref [16],[22]) is 260000 M⁻¹ s⁻¹. Further, in [7] (text value for the ribofuranosyl analog, ref [16],[22]), the kinact is 260000 h⁻¹.

As to `NC(=O)c1cc(=O)[nH]c(=O)n1[C@@H]1O[C@H](COP(=O)(O)O)[C@@H](O)[C@H]1O` [Compound 6-CONH2-UMP, 6-Amido-UMP], the Ki was 1.32 ± 0.04 mM in test [5] (read-out: Ki, Mt ODCase, text value in mM, ref [15],[21]) and 0.00132 ± 4e-05 mM in test [5] (read-out: ODCase Ki, Mt, competitive inhibition, ref [15],[21]).

Regarding `NC(=O)c1cc(=O)[nH]c(=O)n1[C@@H]1O[C@H](CO)[C@@H](O)[C@H]1F` [Compound 30, 6-Amido-2′-deoxy-2′-fluoro-β-D-uridine], the IC50 in test [8] was more than 50 µM.

Regarding `O=c1cc(I)n([C@@H]2O[C@H](CO)[C@@H](O)[C@H]2O)c(=O)[nH]1` [Compound 6-I-uridine, 6-iodouridine], the IC50 in [11] was 6.2 ± 0.7 µM; in test [12] it was 366 ± 45 µM.
